# Measured values as given in patent publication US20230233569A1 (Revolution Medicines, Inc., priority 2020, published 2023).
# Where two headings read alike, the source gives them in different places.
# What was measured:
# [1] = molecular target: KRAS WT (Homo sapiens, UniProt P01116+P62937); assay: Ras-Raf disruption / FRET / MOA assay (BRAF RBD); type: biochemical; settings: KRAS WT FRET data IC50, Ras-Raf disruption, with Cyclophilin A
# Outline: (§1)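 Compound-induced Ras–Cyclophilin A ternary complex disrupting BRAF RBD binding, read as IC50 from reduced TR-FRET ratio relative to DMSO. Final: Ras-GMPPNP 12.5 nM, BRAF RBD 50 nM, Cyclophilin A 25 μM, top compound 30 μM (3-fold, 10 points); 3 h at 25 °C, then 1.5 h with detection antibodies.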
# [2] = molecular target: KRAS G12D (Homo sapiens, UniProt P01116+P62937, G12D); assay: Ras-Raf disruption / FRET / MOA assay (BRAF RBD); type: biochemical; settings: KRAS G12D FRET data IC50, Ras-Raf disruption, with Cyclophilin A
# Sequence of KRAS G12D (P01116 1-169 isoform P01116-2 G12D limits assumed): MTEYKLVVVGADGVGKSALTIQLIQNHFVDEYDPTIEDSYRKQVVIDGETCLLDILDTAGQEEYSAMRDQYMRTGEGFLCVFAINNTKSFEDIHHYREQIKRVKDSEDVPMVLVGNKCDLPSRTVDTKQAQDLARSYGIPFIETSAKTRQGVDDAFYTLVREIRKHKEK
# Sequence of KRAS G12D (P62937 whole entry): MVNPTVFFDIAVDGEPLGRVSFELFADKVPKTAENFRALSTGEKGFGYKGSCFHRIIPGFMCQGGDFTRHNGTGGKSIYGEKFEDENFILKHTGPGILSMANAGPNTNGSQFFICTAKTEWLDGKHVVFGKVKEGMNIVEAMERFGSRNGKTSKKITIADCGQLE
# Outline: as §1
# [3] = molecular target: KRAS Q61H (Homo sapiens, UniProt P01116+P62937, Q61H); assay: Ras-Raf disruption / FRET / MOA assay (BRAF RBD); type: biochemical
# Sequence of KRAS Q61H (P01116 1-169 isoform P01116-2 Q61H limits assumed): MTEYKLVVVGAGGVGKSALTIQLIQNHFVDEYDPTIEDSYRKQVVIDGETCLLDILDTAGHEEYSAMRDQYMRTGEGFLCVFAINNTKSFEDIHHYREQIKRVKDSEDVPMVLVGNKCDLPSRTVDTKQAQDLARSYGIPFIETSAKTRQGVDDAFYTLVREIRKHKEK
# Sequence of KRAS Q61H (P62937 whole entry): as the sequence (P62937 whole entry) above
# Outline: as §1
# [4] = molecular target: KRAS G13D (Homo sapiens, UniProt P01116+P62937, G13D); assay: Ras-Raf disruption / FRET / MOA assay (BRAF RBD); type: biochemical; settings: KRAS G13D FRET data IC50, Ras-Raf disruption, with Cyclophilin A
# Sequence of KRAS G13D (P01116 1-169 isoform P01116-2 G13D limits assumed): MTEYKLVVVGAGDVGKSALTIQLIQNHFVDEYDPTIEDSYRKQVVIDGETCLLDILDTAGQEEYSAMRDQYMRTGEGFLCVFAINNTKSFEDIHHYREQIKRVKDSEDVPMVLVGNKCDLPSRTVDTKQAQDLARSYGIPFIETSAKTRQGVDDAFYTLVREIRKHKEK
# Sequence of KRAS G13D (P62937 whole entry): as the sequence (P62937 whole entry) above
# Outline: as §1
# [5] = molecular target: KRAS G12S (Homo sapiens, UniProt P01116+P62937, G12S); assay: Ras-Raf disruption / FRET / MOA assay (BRAF RBD); type: biochemical; settings: KRAS G12S FRET data IC50, Ras-Raf disruption, with Cyclophilin A
# Sequence of KRAS G12S (P01116 1-169 isoform P01116-2 G12S limits assumed): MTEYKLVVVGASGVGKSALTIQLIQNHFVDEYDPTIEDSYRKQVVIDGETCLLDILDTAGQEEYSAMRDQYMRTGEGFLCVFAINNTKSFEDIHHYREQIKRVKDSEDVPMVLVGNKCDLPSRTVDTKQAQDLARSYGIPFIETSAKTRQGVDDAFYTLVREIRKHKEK
# Sequence of KRAS G12S (P62937 whole entry): as the sequence (P62937 whole entry) above
# Outline: as §1
# [6] = molecular target: NRAS WT (Homo sapiens, UniProt P01111+P62937); assay: Ras-Raf disruption / FRET / MOA assay (BRAF RBD); type: biochemical
# Sequence of NRAS WT (P01111 whole entry): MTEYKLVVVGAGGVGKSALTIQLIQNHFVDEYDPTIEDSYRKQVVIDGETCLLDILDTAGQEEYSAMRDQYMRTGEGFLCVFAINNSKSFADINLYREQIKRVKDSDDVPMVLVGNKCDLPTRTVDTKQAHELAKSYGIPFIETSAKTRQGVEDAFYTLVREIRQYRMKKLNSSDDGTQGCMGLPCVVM
# Sequence of NRAS WT (P62937 whole entry): as the sequence (P62937 whole entry) above
# Outline: as §1
# [7] = molecular target: NRAS Q61K (Homo sapiens, UniProt P01111+P62937, Q61K); assay: Ras-Raf disruption / FRET / MOA assay (BRAF RBD); type: biochemical
# Sequence of NRAS Q61K (P01111 whole entry Q61K): as the sequence (P01111 whole entry) above, with Q61K counted along it
# Sequence of NRAS Q61K (P62937 whole entry): as the sequence (P62937 whole entry) above
# Outline: as §1
# [8] = molecular target: NRAS Q61R (Homo sapiens, UniProt P01111+P62937, Q61R); assay: Ras-Raf disruption / FRET / MOA assay (BRAF RBD); type: biochemical
# Sequence of NRAS Q61R (P01111 whole entry Q61R): as the sequence (P01111 whole entry) above, with Q61R counted along it
# Sequence of NRAS Q61R (P62937 whole entry): as the sequence (P62937 whole entry) above
# Outline: as §1
# [9] = molecular target: KRAS G13C (Homo sapiens, UniProt P01116+P62937, G13C); assay: Ras-Raf disruption / FRET / MOA assay (BRAF RBD); type: biochemical; settings: KRAS G13C FRET data IC50, Ras-Raf disruption, with Cyclophilin A
# Sequence of KRAS G13C (P01116 1-169 isoform P01116-2 G13C limits assumed): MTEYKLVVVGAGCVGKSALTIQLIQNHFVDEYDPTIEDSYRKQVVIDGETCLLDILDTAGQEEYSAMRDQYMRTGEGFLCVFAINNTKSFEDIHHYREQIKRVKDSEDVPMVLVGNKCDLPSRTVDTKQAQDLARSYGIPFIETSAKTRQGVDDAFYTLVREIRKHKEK
# Sequence of KRAS G13C (P62937 whole entry): as the sequence (P62937 whole entry) above
# Outline: as §1
# [10] = molecular target: NRAS G12C (Homo sapiens, UniProt P01111+P62937, G12C); assay: Ras-Raf disruption / FRET / MOA assay (BRAF RBD); type: biochemical; settings: NRAS G12C FRET data IC50, NRAS G12C
# Sequence of NRAS G12C (P01111 whole entry G12C): as the sequence (P01111 whole entry) above, with G12C counted along it
# Sequence of NRAS G12C (P62937 whole entry): as the sequence (P62937 whole entry) above
# Outline: as §1
# [11] = molecular target: KRAS G12V (Homo sapiens, UniProt P01116+P62937, G12V); assay: Ras-Raf disruption / FRET / MOA assay (BRAF RBD); type: biochemical; settings: KRAS G12V FRET data IC50, Ras-Raf disruption, with Cyclophilin A
# Sequence of KRAS G12V (P01116 1-169 isoform P01116-2 G12V limits assumed): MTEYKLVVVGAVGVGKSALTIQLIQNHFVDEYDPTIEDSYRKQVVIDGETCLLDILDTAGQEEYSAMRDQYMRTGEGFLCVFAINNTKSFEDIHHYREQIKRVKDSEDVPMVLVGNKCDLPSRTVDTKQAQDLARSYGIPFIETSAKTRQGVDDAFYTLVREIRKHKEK
# Sequence of KRAS G12V (P62937 whole entry): as the sequence (P62937 whole entry) above
# Outline: as §1
# [12] = tested on: AsPC-1 (K-Ras G12D); assay: CellTiter-Glo cell viability assay; type: cell-based; settings: Homo sapiens, ASPC1, 120 h
# Experimental: Determination of Cell Viability in RAS Mutant Cancer Cell Lines
# Protocol: CellTiter-Glo® Cell Viability Assay
# Note—The following protocol describes a procedure for monitoring cell viability of K-Ras mutant cancer cell lines in response to a compound of the invention. Other RAS isoforms may be employed, though the number of cells to be seeded will vary based on cell line used.
# Test compounds (132.5 nL) were directly dispensed into the assay plates containing cells. […] On day 5, assay plates and their contents were equilibrated to room temperature for approximately 30 minutes. […] Luminescence was measured using the PerkinElmer Enspire. Data were normalized by the following: (Sample signal/Avg. DMSO)*100. The data were fit using a four-parameter logistic fit.
# [13] = tested on: AsPC-1 (K-Ras G12D); assay: Potency assay: pERK; type: cell-based; settings: Homo sapiens
# [14] = molecular target: KRAS G12C (Homo sapiens, UniProt P01116+P62937, G12C); assay: Ras-Raf disruption / FRET / MOA assay (BRAF RBD); type: biochemical; settings: KRAS G12C FRET data IC50, Ras-Raf disruption, with Cyclophilin A
# Sequence of KRAS G12C (P01116 1-169 isoform P01116-2 G12C limits assumed): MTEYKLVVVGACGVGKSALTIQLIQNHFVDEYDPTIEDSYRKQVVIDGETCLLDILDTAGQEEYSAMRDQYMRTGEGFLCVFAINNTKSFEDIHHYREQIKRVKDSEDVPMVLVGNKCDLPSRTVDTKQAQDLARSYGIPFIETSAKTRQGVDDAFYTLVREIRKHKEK
# Sequence of KRAS G12C (P62937 whole entry): as the sequence (P62937 whole entry) above
# Outline: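 TR-FRET read-out after 1.5 h with anti-His Eu-W1024 (10 nM) and anti-GST APC (50 nM), following 3 h at 25 °C of compound (top 30 μM, 3-fold, 10 points) with 25 μM Cyclophilin A, 12.5 nM GMPPNP-loaded K-Ras G12C and 50 nM BRAF RBD; IC50 reported.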
# [15] = read-out: AsPC-1 Cell Viability assay data IC50, K-Ras G12D, 5-day treatment
# Sequence of KRAS WT (P01116 1-169 isoform P01116-2 limits assumed): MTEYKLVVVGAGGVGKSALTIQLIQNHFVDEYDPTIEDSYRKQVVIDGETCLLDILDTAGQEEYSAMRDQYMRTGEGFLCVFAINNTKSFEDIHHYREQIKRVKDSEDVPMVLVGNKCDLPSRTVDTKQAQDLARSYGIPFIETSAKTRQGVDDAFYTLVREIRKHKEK
# Sequence of KRAS WT (P62937 whole entry): as the sequence (P62937 whole entry) above
SMILES,IC50 [1],IC50 [2],IC50 [3],IC50 [4],IC50 [5],IC50 [6],IC50 [7],IC50 [8],IC50 [9],IC50 [10],IC50 [11],"IC50 ([12]; K-Ras G12D, 5-day treatment, read-out: AsPC-1 Cell Viability assay data IC50)","EC50 ([13]; ASPC1, AsPC-1 KRAS G12D, read-out: pERK EC50)",IC50 [14],"IC50 [12, 15]","EC50 ([13]; ASPC1, read-out: pERK EC50)"
CCn1c(-c2cccnc2[C@H](C)OC)c2c3cc(ccc31)-c1cc(O)cc(c1)C[C@H](NC(=O)[C@H](C(C)C)N(C)C(=O)[C@]13C[C@H]1CCN3C(=O)[C@@H]1CN1)C(=O)N1CCC[C@H](N1)C(=O)OCC(C)(C)C2 [Example 166],100 to 1000 nM,100 to 1000 nM,10 to 100 nM,100 to 1000 nM,100 to 1000 nM,100 to 1000 nM,1000 to 10000 nM,1000 to 10000 nM,100 to 1000 nM,100 to 1000 nM,100 to 1000 nM,1000 to 10000 nM,< 5000 nM,100 to 1000 nM,–,–
"CCn1c(-c2cccnc2[C@H](C)OC)c2c3cc(ccc31)-c1cc(O)cc(c1)C[C@H](NC(=O)[C@H](C(C)C)N(C)C(=O)CN(C)C(=O)[C@H]1CN1CCCN1CCCC1=O)C(=O)N1CCC[C@H](N1)C(=O)OCC(C)(C)C2 (stereo partly drawn) [Example 268, (2R)—N-(2-(((2S)-1-(((6^3S,4S)-1^1-ethyl-2^5-hydroxy-1^2-(2-((S)-1-methoxyethyl)pyridin-3-yl)-10,10-dimethyl-5,7-dioxo-6^1,6^2,6^3,6^4,6^5,6^6-hexahydro-1^1H-8-oxa-1(5,3)-indola-6(1,3)-pyridazina-2(1,3)-benzenacycloundecaphane-4-yl)amino)-3-methyl-1-oxobutan-2-yl)(methyl)amino)-2-oxoethyl)-N-methyl-1-(3-(2-oxopyrrolidin-1-yl)propyl)aziridine-2-carboxamide]",10 to 100 nM,100 to 1000 nM,10 to 100 nM,100 to 1000 nM,10 to 100 nM,10 to 100 nM,100 to 1000 nM,100 to 1000 nM,10 to 100 nM,< 10 nM,10 to 100 nM,–,–,< 10 nM,1000 to 10000 nM,< 5000 nM
CCn1c(-c2cccnc2[C@H](C)OC)c2c3cc(ccc31)-c1cc(O)cc(c1)C[C@H](NC(=O)[C@H](C(C)C)N(C)C(=O)CN(C)C(=O)[C@@H]1CN1CCCN1CCCC1=O)C(=O)N1CCC[C@H](N1)C(=O)OCC(C)(C)C2 (some centres unmarked) [Example 269],10 to 100 nM,10 to 100 nM,10 to 100 nM,100 to 1000 nM,10 to 100 nM,10 to 100 nM,100 to 1000 nM,100 to 1000 nM,10 to 100 nM,< 10 nM,10 to 100 nM,–,–,< 10 nM,1000 to 10000 nM,< 5000 nM
CCn1c(-c2cccnc2[C@H](C)OC)c2c3cc(ccc31)-c1cc(O)cc(c1)C[C@H](NC(=O)[C@H](C(C)C)N(C)C(=O)CN(C)C(=O)[C@@H]1CN1CC(=O)N(C)C)C(=O)N1CCC[C@H](N1)C(=O)OCC(C)(C)C2 (some centres unmarked) [Example 271],10 to 100 nM,100 to 1000 nM,10 to 100 nM,100 to 1000 nM,10 to 100 nM,100 to 1000 nM,100 to 1000 nM,100 to 1000 nM,10 to 100 nM,< 10 nM,100 to 1000 nM,–,–,< 10 nM,> 10000 nM,< 5000 nM
CCn1c(-c2cccnc2[C@H](C)OC)c2c3cc(ccc31)-c1cc(O)cc(c1)C[C@H](NC(=O)[C@H](C(C)C)N(C)C(=O)CN(C)C(=O)[C@H]1CN1CCCN1CCOC1=O)C(=O)N1CCC[C@H](N1)C(=O)OCC(C)(C)C2 (some centres unmarked) [Example 272],10 to 100 nM,100 to 1000 nM,10 to 100 nM,100 to 1000 nM,10 to 100 nM,10 to 100 nM,100 to 1000 nM,100 to 1000 nM,10 to 100 nM,< 10 nM,10 to 100 nM,–,–,< 10 nM,1000 to 10000 nM,< 5000 nM
CCn1c(-c2cccnc2[C@H](C)OC)c2c3cc(ccc31)-c1cc(O)cc(c1)C[C@H](NC(=O)[C@H](C(C)C)N(C)C(=O)CN(C)C(=O)[C@H]1CN1C1COC1)C(=O)N1CCC[C@H](N1)C(=O)OCC(C)(C)C2 (some centres unmarked) [Example 275],100 to 1000 nM,100 to 1000 nM,10 to 100 nM,100 to 1000 nM,10 to 100 nM,100 to 1000 nM,100 to 1000 nM,100 to 1000 nM,10 to 100 nM,10 to 100 nM,100 to 1000 nM,–,–,10 to 100 nM,1000 to 10000 nM,< 5000 nM
CCn1c(-c2cccnc2[C@H](C)OC)c2c3cc(ccc31)-c1cc(O)cc(c1)C[C@H](NC(=O)[C@H](C(C)C)N(C)C(=O)CN(C)C(=O)[C@@H]1CN1CC1COC1)C(=O)N1CCC[C@H](N1)C(=O)OCC(C)(C)C2 (some centres unmarked) [Example 278],10 to 100 nM,10 to 100 nM,10 to 100 nM,100 to 1000 nM,10 to 100 nM,10 to 100 nM,100 to 1000 nM,100 to 1000 nM,10 to 100 nM,< 10 nM,10 to 100 nM,–,–,10 to 100 nM,1000 to 10000 nM,< 5000 nM
CCn1c(-c2cccnc2[C@H](C)OC)c2c3cc(ccc31)-c1cc(O)cc(c1)C[C@H](NC(=O)[C@H](C(C)C)N(C)C(=O)CN(C)C(=O)[C@@H]1N[C@@H]1C1COC1)C(=O)N1CCC[C@H](N1)C(=O)OCC(C)(C)C2 [Example 281],10 to 100 nM,10 to 100 nM,< 10 nM,10 to 100 nM,< 10 nM,10 to 100 nM,10 to 100 nM,100 to 1000 nM,10 to 100 nM,< 10 nM,10 to 100 nM,–,–,< 10 nM,100 to 1000 nM,< 5000 nM
CCn1c(-c2cccnc2[C@H](C)OC)c2c3cc(ccc31)-c1cc(O)cc(c1)C[C@H](NC(=O)[C@H](C(C)C)N(C)C(=O)CN(C)C(=O)[C@H]1N[C@H]1C1COC1)C(=O)N1CCC[C@H](N1)C(=O)OCC(C)(C)C2 [Example 282],10 to 100 nM,10 to 100 nM,10 to 100 nM,10 to 100 nM,10 to 100 nM,10 to 100 nM,100 to 1000 nM,100 to 1000 nM,< 10 nM,10 to 100 nM,10 to 100 nM,–,–,10 to 100 nM,1000 to 10000 nM,< 5000 nM
CCn1c(-c2cccnc2[C@H](C)OC)c2c3cc(ccc31)-c1cc(O)cc(c1)C[C@H](NC(=O)[C@H](C(C)C)N(C)C(=O)CN(C)C(=O)[C@H]1N[C@@H]1C1COC1)C(=O)N1CCC[C@H](N1)C(=O)OCC(C)(C)C2 [Example 284],10 to 100 nM,10 to 100 nM,10 to 100 nM,10 to 100 nM,10 to 100 nM,10 to 100 nM,100 to 1000 nM,100 to 1000 nM,< 10 nM,< 10 nM,10 to 100 nM,–,–,10 to 100 nM,1000 to 10000 nM,< 5000 nM
